Reference: PubChem BioAssay (NCI)
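Briefly, cells in 96-well plates were exposed to five compound concentrations for 48 h, and endpoints were estimated by linear interpolation. Definition used: TGI = concentration required for complete inhibition of growth.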

What was measured:
Experiment in all cases: NCI anticancer screen, dose series, 48 h
MALME-3M melanoma = system: MALME-3M melanoma
SK-OV-3 ovarian = system: SK-OV-3 ovarian
HCT-116 colon = system: HCT-116 colon
SNB-19 CNS = system: SNB-19 CNS
NCI/ADR-RES ovarian = system: NCI/ADR-RES ovarian
HT29 colon = system: HT29 colon
SW-620 colon = system: SW-620 colon
A549 NSCLC = system: A549 NSCLC
786-0 renal = system: 786-0 renal
HS 578T breast = system: HS 578T breast
K-562 leukemia = system: K-562 leukemia
HCT-15 colon = system: HCT-15 colon
KM12 colon = system: KM12 colon
CAKI-1 renal = system: CAKI-1 renal
MCF7 breast = system: MCF7 breast
ACHN renal = system: ACHN renal
SF-268 CNS = system: SF-268 CNS
UACC-62 melanoma = system: UACC-62 melanoma
NCI-H23 lung = system: NCI-H23 lung
SK-MEL-5 melanoma = system: SK-MEL-5 melanoma
U251 CNS = system: U251 CNS
HOP-92 NSCLC = system: HOP-92 NSCLC
UO-31 renal = system: UO-31 renal
IGROV1 ovarian = system: IGROV1 ovarian
MDA-MB-435 = system: MDA-MB-435
NCI-H522 lung = system: NCI-H522 lung
SK-MEL-2 melanoma = system: SK-MEL-2 melanoma
OVCAR-8 ovarian = system: OVCAR-8 ovarian
DU-145 prostate = system: DU-145 prostate
RXF 393 renal = system: RXF 393 renal
NCI-H460 lung = system: NCI-H460 lung
SR leukemia = system: SR leukemia
HCC-2998 colon = system: HCC-2998 colon
SNB-75 CNS = system: SNB-75 CNS
OVCAR-5 ovarian = system: OVCAR-5 ovarian
OVCAR-3 ovarian = system: OVCAR-3 ovarian
MDA-MB-231 breast = system: MDA-MB-231 breast
MDA-N = system: MDA-N
A498 renal = system: A498 renal
LOX IMVI melanoma = system: LOX IMVI melanoma
HL-60(TB) leukemia = system: HL-60(TB) leukemia
OVCAR-4 ovarian = system: OVCAR-4 ovarian
SF-539 CNS = system: SF-539 CNS
SF-295 CNS = system: SF-295 CNS
BT-549 breast = system: BT-549 breast
PC-3 prostate = system: PC-3 prostate
EKVX NSCLC = system: EKVX NSCLC
M14 melanoma = system: M14 melanoma
SN12C renal = system: SN12C renal
MOLT-4 leukemia = system: MOLT-4 leukemia
TK-10 renal = system: TK-10 renal
COLO 205 colon = system: COLO 205 colon
UACC-257 melanoma = system: UACC-257 melanoma
T-47D breast = system: T-47D breast
HOP-62 NSCLC = system: HOP-62 NSCLC
CCRF-CEM leukemia = system: CCRF-CEM leukemia
SK-MEL-28 melanoma = system: SK-MEL-28 melanoma

CCNCCCNc1c2ccccc2nc2ccccc12
TGI (MALME-3M melanoma): 2260 nM | TGI (SK-OV-3 ovarian): 6.55 µM | TGI (HCT-116 colon): 8.36 µM | TGI (SNB-19 CNS): 2.98 µM | TGI (NCI/ADR-RES ovarian): 10.2 µM | TGI (HT29 colon): > 100 µM | TGI (SW-620 colon): 1.46 µM | TGI (A549 NSCLC): 3.38 µM | TGI (786-0 renal): 5.39 µM | TGI (HS 578T breast): 3.13 µM | TGI (K-562 leukemia): 1.64 µM | TGI (HCT-15 colon): 1.54 µM | TGI (KM12 colon): 2.04 µM | TGI (CAKI-1 renal): 1.23 µM | TGI (MCF7 breast): 0.625 µM | TGI (ACHN renal): 0.47 µM | TGI (SF-268 CNS): 4.47 µM | TGI (UACC-62 melanoma): 1.62 µM | TGI (NCI-H23 lung): 2.14 µM | TGI (SK-MEL-5 melanoma): 1.47 µM | TGI (U251 CNS): > 100 µM | TGI (HOP-92 NSCLC): 3.11 µM | TGI (UO-31 renal): 2.63 µM | TGI (IGROV1 ovarian): 4.3 µM | TGI (MDA-MB-435): 1.77 µM | TGI (NCI-H522 lung): 0.7 µM | TGI (SK-MEL-2 melanoma): 1950 nM | TGI (OVCAR-8 ovarian): 3.7 µM | TGI (DU-145 prostate): 4.01 µM | TGI (RXF 393 renal): 2.83 µM | TGI (NCI-H460 lung): 0.585 µM | TGI (SR leukemia): 1.83 µM | TGI (HCC-2998 colon): 0.643 µM | TGI (SNB-75 CNS): 1.58 µM | TGI (OVCAR-5 ovarian): 1.04 µM | TGI (OVCAR-3 ovarian): 2 µM | TGI (MDA-MB-231 breast): 2.5 µM | TGI (MDA-N): 1.26 µM | TGI (A498 renal): 3.2 µM | TGI (LOX IMVI melanoma): 1080 nM | TGI (HL-60(TB) leukemia): 54.9 µM | TGI (OVCAR-4 ovarian): 3.2 µM | TGI (SF-539 CNS): 1.21 µM | TGI (SF-295 CNS): 2.81 µM | TGI (BT-549 breast): 10.5 µM | TGI (PC-3 prostate): 0.816 µM | TGI (EKVX NSCLC): 21.2 µM | TGI (M14 melanoma): 0.95 µM | TGI (SN12C renal): 2.2 µM | TGI (MOLT-4 leukemia): > 100 µM | TGI (TK-10 renal): 16 µM | TGI (COLO 205 colon): 0.761 µM | TGI (UACC-257 melanoma): 1.7 µM | TGI (T-47D breast): 3.35 µM | TGI (HOP-62 NSCLC): 2.37 µM | TGI (CCRF-CEM leukemia): 10.1 µM | TGI (SK-MEL-28 melanoma): 1.48 µM

COC(=O)C12C3C4(C(=O)OC)C1C1(C(=O)OC)C2C3(C(=O)OC)C41C(=O)N(C(C)C)C(C)C (stereo unspecified)
TGI (HCT-116 colon): > 100 µM | TGI (SNB-19 CNS): > 100 µM | TGI (NCI/ADR-RES ovarian): > 100 µM | TGI (HT29 colon): > 100 µM | TGI (SW-620 colon): > 100 µM | TGI (A549 NSCLC): > 100 µM | TGI (786-0 renal): > 100 µM | TGI (HS 578T breast): > 100 µM | TGI (K-562 leukemia): > 100 µM | TGI (HCT-15 colon): > 100 µM | TGI (KM12 colon): > 100 µM | TGI (CAKI-1 renal): > 100 µM | TGI (MCF7 breast): > 100 µM | TGI (ACHN renal): > 100 µM | TGI (SF-268 CNS): > 100 µM | TGI (UACC-62 melanoma): > 100 µM | TGI (NCI-H23 lung): > 100 µM | TGI (SK-MEL-5 melanoma): > 100 µM | TGI (U251 CNS): > 100 µM | TGI (HOP-92 NSCLC): > 100 µM | TGI (UO-31 renal): > 100 µM | TGI (IGROV1 ovarian): > 100 µM | TGI (MDA-MB-435): > 100 µM | TGI (NCI-H522 lung): > 100 µM | TGI (SK-MEL-2 melanoma): > 100000 nM | TGI (OVCAR-8 ovarian): > 100 µM | TGI (DU-145 prostate): > 100 µM | TGI (RXF 393 renal): > 100 µM | TGI (NCI-H460 lung): > 100 µM | TGI (SR leukemia): > 100 µM | TGI (HCC-2998 colon): > 100 µM | TGI (SNB-75 CNS): > 100 µM | TGI (OVCAR-5 ovarian): > 100 µM | TGI (OVCAR-3 ovarian): > 100 µM | TGI (MDA-MB-231 breast): > 100 µM | TGI (MDA-N): > 100 µM | TGI (A498 renal): > 100 µM | TGI (LOX IMVI melanoma): > 100000 nM | TGI (HL-60(TB) leukemia): > 100 µM | TGI (OVCAR-4 ovarian): > 100 µM | TGI (SF-539 CNS): > 100 µM | TGI (SF-295 CNS): > 100 µM | TGI (BT-549 breast): > 100 µM | TGI (PC-3 prostate): > 100 µM | TGI (EKVX NSCLC): > 100 µM | TGI (M14 melanoma): > 100 µM | TGI (SN12C renal): > 100 µM | TGI (MOLT-4 leukemia): > 100 µM | TGI (TK-10 renal): > 100 µM | TGI (COLO 205 colon): > 100 µM | TGI (UACC-257 melanoma): > 100 µM | TGI (T-47D breast): > 100 µM | TGI (HOP-62 NSCLC): > 100 µM | TGI (CCRF-CEM leukemia): > 100 µM | TGI (SK-MEL-28 melanoma): > 100 µM

c1csc(-c2cc(-c3ccsc3)c(-c3ccsc3)s2)c1
TGI (MALME-3M melanoma): > 100000 nM | TGI (SK-OV-3 ovarian): > 100 µM | TGI (HCT-116 colon): > 100 µM | TGI (SNB-19 CNS): > 100 µM | TGI (NCI/ADR-RES ovarian): > 100 µM | TGI (HT29 colon): > 100 µM | TGI (SW-620 colon): > 100 µM | TGI (A549 NSCLC): > 100 µM | TGI (786-0 renal): > 100 µM | TGI (HS 578T breast): > 100 µM | TGI (K-562 leukemia): > 100 µM | TGI (HCT-15 colon): > 100 µM | TGI (KM12 colon): > 100 µM | TGI (CAKI-1 renal): > 100 µM | TGI (MCF7 breast): > 100 µM | TGI (ACHN renal): > 100 µM | TGI (SF-268 CNS): > 100 µM | TGI (UACC-62 melanoma): > 100 µM | TGI (NCI-H23 lung): > 100 µM | TGI (SK-MEL-5 melanoma): > 100 µM | TGI (U251 CNS): > 100 µM | TGI (HOP-92 NSCLC): > 100 µM | TGI (UO-31 renal): > 100 µM | TGI (IGROV1 ovarian): > 100 µM | TGI (MDA-MB-435): > 100 µM | TGI (NCI-H522 lung): > 100 µM | TGI (OVCAR-8 ovarian): > 100 µM | TGI (DU-145 prostate): > 100 µM | TGI (RXF 393 renal): > 100 µM | TGI (NCI-H460 lung): > 100 µM | TGI (SR leukemia): > 100 µM | TGI (HCC-2998 colon): > 100 µM | TGI (SNB-75 CNS): > 100 µM | TGI (OVCAR-5 ovarian): > 100 µM | TGI (OVCAR-3 ovarian): > 100 µM | TGI (MDA-MB-231 breast): > 100 µM | TGI (MDA-N): > 100 µM | TGI (A498 renal): > 100 µM | TGI (OVCAR-4 ovarian): > 100 µM | TGI (SF-539 CNS): > 100 µM | TGI (SF-295 CNS): > 100 µM | TGI (BT-549 breast): > 100 µM | TGI (PC-3 prostate): > 100 µM | TGI (EKVX NSCLC): 90.8 µM | TGI (M14 melanoma): > 100 µM | TGI (SN12C renal): > 100 µM | TGI (MOLT-4 leukemia): > 100 µM | TGI (TK-10 renal): > 100 µM | TGI (COLO 205 colon): > 100 µM | TGI (UACC-257 melanoma): > 100 µM | TGI (T-47D breast): 54.2 µM | TGI (HOP-62 NSCLC): > 100 µM | TGI (CCRF-CEM leukemia): > 100 µM | TGI (SK-MEL-28 melanoma): > 100 µM
